The text below walks through data of patent US10870647B2, “Imidazopyridine derivative, method for preparing same, and pharmaceutical composition containing same as active ingredient for preventing or treating cancer” (DAEGU-GYEONGBUK MEDICAL INNOVATION FOUNDATION, priority 2016, dated 2020).

What all share (assay): Kinase selectivity, scanMAX Kinase assay panel (DiscoverX), % control at 1 uM
Holding throughout (format): binding

In test [1] the target is T1, scanMAX Kinase assay panel (Homo sapiens, UniProt O95819).
T1 construct: purchased DiscoverX
T1 sequence (O95819 whole entry): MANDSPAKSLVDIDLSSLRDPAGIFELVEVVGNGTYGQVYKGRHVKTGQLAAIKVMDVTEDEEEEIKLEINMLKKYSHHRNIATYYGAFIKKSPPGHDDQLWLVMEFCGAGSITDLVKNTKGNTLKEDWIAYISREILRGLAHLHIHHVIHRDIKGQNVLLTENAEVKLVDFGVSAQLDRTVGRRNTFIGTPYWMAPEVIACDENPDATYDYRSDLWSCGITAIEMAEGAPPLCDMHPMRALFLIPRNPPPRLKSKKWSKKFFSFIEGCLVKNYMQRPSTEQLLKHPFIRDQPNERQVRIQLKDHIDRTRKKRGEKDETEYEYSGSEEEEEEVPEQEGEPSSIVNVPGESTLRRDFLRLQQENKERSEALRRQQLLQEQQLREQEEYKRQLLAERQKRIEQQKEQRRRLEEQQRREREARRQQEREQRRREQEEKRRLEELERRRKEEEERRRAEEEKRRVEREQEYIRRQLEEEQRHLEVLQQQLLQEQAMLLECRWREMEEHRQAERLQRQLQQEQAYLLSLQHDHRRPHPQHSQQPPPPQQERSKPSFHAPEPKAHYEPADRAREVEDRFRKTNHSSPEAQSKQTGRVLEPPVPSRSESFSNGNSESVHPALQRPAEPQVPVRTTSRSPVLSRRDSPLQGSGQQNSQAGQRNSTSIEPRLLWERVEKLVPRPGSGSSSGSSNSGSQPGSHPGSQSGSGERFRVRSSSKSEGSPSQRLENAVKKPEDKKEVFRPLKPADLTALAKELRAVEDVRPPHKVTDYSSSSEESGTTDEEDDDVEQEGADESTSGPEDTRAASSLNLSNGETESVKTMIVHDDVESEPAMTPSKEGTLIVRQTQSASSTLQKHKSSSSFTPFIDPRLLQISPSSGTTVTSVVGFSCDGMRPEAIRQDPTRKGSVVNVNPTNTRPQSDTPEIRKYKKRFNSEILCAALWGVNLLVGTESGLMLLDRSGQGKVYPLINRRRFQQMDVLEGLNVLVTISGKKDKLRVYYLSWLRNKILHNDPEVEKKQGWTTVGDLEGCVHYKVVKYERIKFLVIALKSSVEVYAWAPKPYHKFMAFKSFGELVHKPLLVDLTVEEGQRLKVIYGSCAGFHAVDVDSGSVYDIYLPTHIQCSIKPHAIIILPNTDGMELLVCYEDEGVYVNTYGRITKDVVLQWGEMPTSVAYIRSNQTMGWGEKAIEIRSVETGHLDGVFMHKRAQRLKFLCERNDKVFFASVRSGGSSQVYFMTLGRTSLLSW
As to conditions: MAP4K4; 1 uM; read-out: Percent Control (%). Summed up:
(§1)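 1 uM cpd (DMSO) per kinase; % ctrl = [cpd − pos ctrl]/[neg ctrl − pos ctrl] × 100; hit if <35.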

For test [2], the target named is T2, scanMAX Kinase assay panel (Homo sapiens, UniProt Q6PHR2).
T2 construct: purchased DiscoverX
T2 sequence (Q6PHR2 1-472): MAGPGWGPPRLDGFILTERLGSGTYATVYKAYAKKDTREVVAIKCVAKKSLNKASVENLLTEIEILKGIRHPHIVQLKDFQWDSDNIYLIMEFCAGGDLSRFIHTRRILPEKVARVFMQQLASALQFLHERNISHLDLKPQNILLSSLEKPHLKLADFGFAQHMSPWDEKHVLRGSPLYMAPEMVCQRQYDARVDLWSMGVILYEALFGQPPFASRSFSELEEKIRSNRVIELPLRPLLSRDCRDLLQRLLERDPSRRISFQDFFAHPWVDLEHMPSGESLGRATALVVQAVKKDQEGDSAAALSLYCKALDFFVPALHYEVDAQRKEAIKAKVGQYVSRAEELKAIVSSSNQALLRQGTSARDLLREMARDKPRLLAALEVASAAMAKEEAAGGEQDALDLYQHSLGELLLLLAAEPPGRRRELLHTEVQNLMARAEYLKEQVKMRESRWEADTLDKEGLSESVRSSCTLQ
As to conditions: ULK3; 1 uM; read-out: Percent Control (%). The method in brief:
as §1

Test [3] concerns the target T3, scanMAX Kinase assay panel (Homo sapiens, UniProt P51955).
T3 construct: purchased DiscoverX
T3 sequence (P51955 1-445): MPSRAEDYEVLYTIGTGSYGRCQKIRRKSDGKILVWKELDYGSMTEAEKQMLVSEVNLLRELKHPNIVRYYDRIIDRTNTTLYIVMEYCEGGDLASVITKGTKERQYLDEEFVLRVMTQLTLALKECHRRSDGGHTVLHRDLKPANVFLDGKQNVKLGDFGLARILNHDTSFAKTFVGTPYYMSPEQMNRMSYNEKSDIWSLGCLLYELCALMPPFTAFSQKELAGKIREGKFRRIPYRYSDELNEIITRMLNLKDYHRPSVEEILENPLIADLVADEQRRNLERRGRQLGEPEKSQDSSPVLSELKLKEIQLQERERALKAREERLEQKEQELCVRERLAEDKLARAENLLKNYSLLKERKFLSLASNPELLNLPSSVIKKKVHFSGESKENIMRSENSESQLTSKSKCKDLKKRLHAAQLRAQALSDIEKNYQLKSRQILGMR
The settings on record: NEK2; 1 uM; read-out: Percent Control (%). The method in brief: as §1

For test [4], the target named is T4, scanMAX Kinase assay panel (Homo sapiens, UniProt P51957).
T4 construct: purchased DiscoverX
T4 sequence (P51957 whole entry): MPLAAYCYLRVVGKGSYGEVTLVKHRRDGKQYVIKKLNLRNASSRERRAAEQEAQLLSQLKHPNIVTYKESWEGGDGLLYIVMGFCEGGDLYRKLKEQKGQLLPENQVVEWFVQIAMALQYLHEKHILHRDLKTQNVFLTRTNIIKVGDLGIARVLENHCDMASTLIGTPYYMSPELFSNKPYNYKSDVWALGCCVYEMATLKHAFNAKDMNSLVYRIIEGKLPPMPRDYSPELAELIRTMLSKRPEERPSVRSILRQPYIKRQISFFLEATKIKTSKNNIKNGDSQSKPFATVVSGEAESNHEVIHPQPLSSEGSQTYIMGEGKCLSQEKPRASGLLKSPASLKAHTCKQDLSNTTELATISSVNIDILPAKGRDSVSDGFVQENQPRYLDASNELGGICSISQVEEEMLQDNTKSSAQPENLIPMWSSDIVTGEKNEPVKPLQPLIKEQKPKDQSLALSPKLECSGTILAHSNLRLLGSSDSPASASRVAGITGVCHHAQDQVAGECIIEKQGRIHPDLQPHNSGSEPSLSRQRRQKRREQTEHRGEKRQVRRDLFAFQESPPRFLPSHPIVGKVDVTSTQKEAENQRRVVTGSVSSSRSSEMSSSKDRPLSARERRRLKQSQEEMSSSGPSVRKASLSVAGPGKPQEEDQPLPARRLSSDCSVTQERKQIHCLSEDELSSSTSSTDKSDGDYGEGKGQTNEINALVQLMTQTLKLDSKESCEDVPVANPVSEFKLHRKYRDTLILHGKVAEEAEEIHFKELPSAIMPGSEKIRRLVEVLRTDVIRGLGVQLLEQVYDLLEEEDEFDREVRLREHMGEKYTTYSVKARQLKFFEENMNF
The settings on record: NEK4; 1 uM; read-out: Percent Control (%). The method in brief:
as §1

In test [5] the target is T5, scanMAX Kinase assay panel (Homo sapiens, UniProt Q9UL54).
T5 construct: purchased DiscoverX
T5 sequence (Q9UL54 1-1235): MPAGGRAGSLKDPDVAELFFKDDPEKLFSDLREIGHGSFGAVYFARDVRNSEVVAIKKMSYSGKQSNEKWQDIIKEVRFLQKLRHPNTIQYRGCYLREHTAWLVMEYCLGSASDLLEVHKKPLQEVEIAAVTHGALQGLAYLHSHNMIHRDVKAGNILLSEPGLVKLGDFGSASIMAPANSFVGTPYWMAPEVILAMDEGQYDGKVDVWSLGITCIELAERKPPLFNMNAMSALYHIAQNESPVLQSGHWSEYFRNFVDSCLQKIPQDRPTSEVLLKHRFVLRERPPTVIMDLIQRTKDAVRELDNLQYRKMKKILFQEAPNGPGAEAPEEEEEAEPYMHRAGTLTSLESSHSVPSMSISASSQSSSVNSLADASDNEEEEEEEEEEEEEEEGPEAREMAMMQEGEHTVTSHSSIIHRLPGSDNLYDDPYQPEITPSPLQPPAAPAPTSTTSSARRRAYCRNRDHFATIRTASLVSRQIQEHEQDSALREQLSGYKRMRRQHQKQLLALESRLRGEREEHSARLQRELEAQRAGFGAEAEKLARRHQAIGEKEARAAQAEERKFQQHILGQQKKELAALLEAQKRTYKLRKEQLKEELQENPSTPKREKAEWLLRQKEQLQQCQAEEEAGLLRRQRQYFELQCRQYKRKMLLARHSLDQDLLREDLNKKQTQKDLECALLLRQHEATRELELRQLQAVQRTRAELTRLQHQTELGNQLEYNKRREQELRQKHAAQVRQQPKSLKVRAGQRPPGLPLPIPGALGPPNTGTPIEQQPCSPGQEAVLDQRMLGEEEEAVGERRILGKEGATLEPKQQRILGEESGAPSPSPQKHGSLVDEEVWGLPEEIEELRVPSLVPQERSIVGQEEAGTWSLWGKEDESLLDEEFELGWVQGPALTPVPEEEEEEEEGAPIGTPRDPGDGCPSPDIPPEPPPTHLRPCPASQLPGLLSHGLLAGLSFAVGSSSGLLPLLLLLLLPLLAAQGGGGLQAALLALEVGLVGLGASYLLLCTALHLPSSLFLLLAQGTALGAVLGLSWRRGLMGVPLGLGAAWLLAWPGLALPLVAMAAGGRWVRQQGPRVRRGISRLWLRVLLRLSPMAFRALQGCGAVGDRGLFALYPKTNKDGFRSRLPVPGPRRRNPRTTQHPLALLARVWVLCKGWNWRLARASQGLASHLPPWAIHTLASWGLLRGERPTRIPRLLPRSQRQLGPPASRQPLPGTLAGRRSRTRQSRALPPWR
The settings on record: TAOK2; 1 uM; read-out: Percent Control (%). Summed up:
as §1

The target in test [6] is T6, scanMAX Kinase assay panel (Homo sapiens, UniProt P37173).
T6 construct: purchased DiscoverX
T6 sequence (P37173 23-567): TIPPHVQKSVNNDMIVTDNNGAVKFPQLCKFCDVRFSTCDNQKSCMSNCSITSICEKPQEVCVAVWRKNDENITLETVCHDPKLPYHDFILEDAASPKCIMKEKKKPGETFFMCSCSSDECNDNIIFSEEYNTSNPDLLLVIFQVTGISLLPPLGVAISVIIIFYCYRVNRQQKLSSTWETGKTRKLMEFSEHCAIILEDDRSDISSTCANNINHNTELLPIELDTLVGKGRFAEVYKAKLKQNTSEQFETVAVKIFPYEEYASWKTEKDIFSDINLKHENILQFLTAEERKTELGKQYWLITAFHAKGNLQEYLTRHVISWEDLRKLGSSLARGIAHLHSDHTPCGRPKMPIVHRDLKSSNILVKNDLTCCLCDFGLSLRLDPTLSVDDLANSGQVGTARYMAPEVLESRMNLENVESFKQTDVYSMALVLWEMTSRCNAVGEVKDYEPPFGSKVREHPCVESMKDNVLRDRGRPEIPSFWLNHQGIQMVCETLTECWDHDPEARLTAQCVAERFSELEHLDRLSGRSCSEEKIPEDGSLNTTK
As to conditions: TGFBR2; 1 uM; read-out: Percent Control (%). The method in brief:
as §1

Regarding `Cc1ccc(C(=O)Nc2ccc(CN3CCN(C)CC3)c(C(F)(F)F)c2)cc1C#Cc1cnc2c(Nc3cnn(C)c3)cccn12` [Example 1, 4-methyl-3-((8-((1-methyl-1H-pyrazol-4-yl)amino)imidazo[1,2-a]pyridin-3-yl)ethynyl)-N-(4-((4-methylpiperazin-1-yl)methyl)-3-(trifluoromethyl)phenyl)benzamide], the remaining binding at 1 µM amounted to 1% in test [1]; 1% in test [2]; 80% in test [3]; 9% in test [4]; 14% in test [5]; 24% in test [6].
Regarding `Cc1cn(-c2cc(NC(=O)c3ccc(C)c(C#Cc4cnc5c(Nc6cnn(C)c6)cccn45)c3)cc(C(F)(F)F)c2)cn1` [Example 12, 4-methyl-N-(3-(4-methyl-1H-imidazol-1-yl)-5-(trifluoromethyl)phenyl)-3-((8-((1-methyl-1H-pyrazol-4-yl)amino)imidazo[1,2-a]pyridin-3-yl)ethynyl)benzamide], the remaining binding at 1 µM in test [1] is 4%; in test [2] it was 91%; in test [3], 100%; in test [4] it was 61%; in test [5], 25%; in test [6] it was 94%.
Take `Cc1ccc(NC(=O)C2(C(=O)Nc3ccc(F)cc3)CC2)cc1C#Cc1cnc2c(Nc3cnn(C(C)C)c3)cccn12` [Example 78]: the remaining binding at 1 µM was found to be 99% in test [1]; 100% in test [2]; 100% in test [3]; 100% in test [4]; 100% in test [5]; 100% in test [6].
